Read-outs that look alike come from different tables or passages of the source.
What was measured:
[1] = 4 plates test (percentage of desinibition observed in the mouse); type: in vivo; conditions: for change in vivo at 1 mg/kg / change in vivo at 3 mg/kg / change in vivo at 10 mg/kg / change in vivo at 30 mg/kg: po, 1 h; for change in vivo at 1 mg/kg: read-out: percentage of desinibition (ACTIVITY, 1 mg/kg p.o.); for change in vivo at 3 mg/kg: read-out: percentage of desinibition (ACTIVITY, 3 mg/kg p.o.); for change in vivo at 10 mg/kg: read-out: percentage of desinibition (ACTIVITY, 10 mg/kg p.o.); for change in vivo at 30 mg/kg: 30 mg/kg p.o.
Description: This activity has been tested by the 4 plates test (Aron C. These de Medecine--Paris 1970; Boissier JR--Simon P. and Aron C., A new method for rapid screening of minor tranquillizers in mice, Europ. J. Pharmacol. 1968, 4, 145-151). The substances are administered in several doses (0.3, 1.0, 3.0, 10 and 30 mg/kg) per os, 60 minutes before the test.
The results, which give the percentage of desinibition observed in the mouse, are shown as Examples III-XVIII. At the same doses, the greater the percentage the higher the activity of the piperazine. The results for two known anxiolytic agents are set forth in Examples XIX and XX.

LD 50 toxicity, oral = conditions: in vivo, p.o., tested as hydrochlorides
[2] = mouse, 60 minutes before the test
[3] = mouse, 1 mg/kg p.o., 60 minutes before the test
[4] = mouse, 3 mg/kg p.o., 60 minutes before the test
[5] = mouse, 10 mg/kg p.o., 60 minutes before the test

OCCN1CCN(c2cccc(SC(F)(F)F)c2)CC1 [Example 3, [4-(3'-trifluoromethylthiophenyl)-piperazino]-ethanol]
percentage of desinibition (ACTIVITY, 0.3 mg/kg p.o.) [1, 2]: +118% | change in vivo at 1 mg/kg [1, 3]: 190% | change in vivo at 3 mg/kg [1, 4]: 230% | change in vivo at 10 mg/kg [1, 5]: 335% | change in vivo at 30 mg/kg [1, 2]: 248% | LD50 (LD 50 toxicity, oral): 500 mg/kg

OCCN1CCN(c2cccc(C(F)(F)F)c2)CC1 [Example 4]
change in vivo at 10 mg/kg [1, 5]: 174% | change in vivo at 30 mg/kg [1, 2]: 226% | LD50 (LD 50 toxicity, oral): 740 mg/kg

OCCN1CCN(c2cccc(OC(F)(F)F)c2)CC1 [Example 5]
change in vivo at 1 mg/kg [1, 3]: 8% | change in vivo at 3 mg/kg [1, 4]: 9% | change in vivo at 10 mg/kg [1, 5]: 14% | change in vivo at 30 mg/kg [1, 2]: 88% | LD50 (LD 50 toxicity, oral): 575 mg/kg

OCCN1CCN(c2cccc(Cl)c2)CC1 [Example 6]
change in vivo at 1 mg/kg [1, 3]: 23% | change in vivo at 3 mg/kg [1, 4]: 50% | change in vivo at 10 mg/kg [1, 5]: 54% | LD50 (LD 50 toxicity, oral): 750 mg/kg

OCCN1CCN(c2ccccc2)CC1 [Example 7]
change in vivo at 1 mg/kg [1, 3]: 39% | change in vivo at 3 mg/kg [1, 4]: 2% | LD50 (LD 50 toxicity, oral): 525 mg/kg

CC(=O)OCCN1CCN(c2cccc(SC(F)(F)F)c2)CC1 [Example 8, (4-m-trifluoromethylthiophenyl-piperazino)-ethyl acetate]
percentage of desinibition (ACTIVITY, 0.3 mg/kg p.o.) [1, 2]: +27% | change in vivo at 1 mg/kg [1, 3]: 88% | change in vivo at 3 mg/kg [1, 4]: 191% | change in vivo at 10 mg/kg [1, 5]: 312% | change in vivo at 30 mg/kg [1, 2]: 154% | LD50 (LD 50 toxicity, oral): 510 mg/kg

CC(=O)OCCN1CCN(c2cccc(C(F)(F)F)c2)CC1 [Example 9]
change in vivo at 1 mg/kg [1, 3]: 24% | change in vivo at 3 mg/kg [1, 4]: 49% | change in vivo at 10 mg/kg [1, 5]: 220% | change in vivo at 30 mg/kg [1, 2]: 156% | LD50 (LD 50 toxicity, oral): 925 mg/kg

Nc1ccccc1C(=O)OCCN1CCN(c2cccc(C(F)(F)F)c2)CC1 [Example 11]
change in vivo at 1 mg/kg [1, 3]: 35% | change in vivo at 3 mg/kg [1, 4]: 63% | change in vivo at 10 mg/kg [1, 5]: 182% | change in vivo at 30 mg/kg [1, 2]: 336% | LD50 (LD 50 toxicity, oral): 3000 mg/kg

COc1ccc(Cl)cc1C(=O)OCCN1CCN(c2cccc(C(F)(F)F)c2)CC1 [Example 12]
change in vivo at 10 mg/kg [1, 5]: 65% | LD50 (LD 50 toxicity, oral): 1800 mg/kg

CNC(=O)OCCN1CCN(c2cccc(SC(F)(F)F)c2)CC1 [Example 13]
change in vivo at 3 mg/kg ([1]; Mus musculus): 49% | change in vivo at 10 mg/kg ([1]; Mus musculus): 152%

CN(C)C(=O)OCCN1CCN(c2cccc(SC(F)(F)F)c2)CC1 [Example 14]
change in vivo at 1 mg/kg ([1]; Mus musculus): 2% | change in vivo at 10 mg/kg ([1]; Mus musculus): 3%

CCCCNC(=O)OCCN1CCN(c2cccc(SC(F)(F)F)c2)CC1 [Example 15]
change in vivo at 1 mg/kg [1, 3]: 3% | change in vivo at 3 mg/kg [1, 4]: 109% | change in vivo at 10 mg/kg [1, 5]: 64%

O=C(Nc1ccccc1)OCCN1CCN(c2cccc(C(F)(F)F)c2)CC1 [Example 17]
change in vivo at 10 mg/kg [1, 5]: 9% | change in vivo at 30 mg/kg [1, 2]: 30%

O=C(Nc1ccccc1)OCCN1CCN(c2cccc(SC(F)(F)F)c2)CC1 [Example 18]
percentage of desinibition (ACTIVITY, 0.3 mg/kg p.o.) [1, 2]: +15% | change in vivo at 1 mg/kg [1, 3]: 23% | change in vivo at 3 mg/kg [1, 4]: 63% | change in vivo at 10 mg/kg [1, 5]: 304% | change in vivo at 30 mg/kg [1, 2]: 532%

CC(C)(C)C(=O)OCCN1CCN(c2cccc(SC(F)(F)F)c2)CC1 [Example 21]
change in vivo at 1 mg/kg [1, 3]: 73% | change in vivo at 3 mg/kg [1, 4]: 122% | change in vivo at 10 mg/kg [1, 5]: 196%

CNC1=Nc2ccc(Cl)cc2C(c2ccccc2)=[N+]([O-])C1 [chlordiazepozide, reference compound]
change in vivo at 1 mg/kg [1, 3]: 43% | change in vivo at 3 mg/kg [1, 4]: 86% | change in vivo at 10 mg/kg [1, 5]: 24%

CCCC(C)(COC(N)=O)COC(N)=O [meprobamate, reference compound]
change in vivo at 3 mg/kg [1, 4]: 53% | change in vivo at 10 mg/kg [1, 5]: 38% | change in vivo at 30 mg/kg [1, 2]: 142%

— patent US4202898A, “Method of treating anxiety and depression” (priority 1978, dated 1980)
